Earlier results on 1 substance are cited in patent US20040142388A1, “Method for detecting chronic dementia diseases, and corresponding VGF peptides and detection reagents” (priority 2001, published 2004).

This data set concerns PC12 cell line. To be noted: rat pheochomozytome cell line (PC12), stimulation with nerve growth factor.

Consider “NGF: important growth factor which regulates the differentiation of the peripheral and central nervous system”, for which the “increase in the concentration of VGF” value is reported as 12- to 14 fold.
